Consider 1 compound from patent US7655392B2, “Quenching methods for red blood cell inactivation process” (priority 2004, dated 2010).

Read-outs that look alike come from different tables or passages of the source.

One test concerns red blood cells. Format: cell-based. The following applies: unit 6: 0.2 mM GSH+2 eq base, no PIC-1. Here is the method: In another assay, the rabbit polyclonal sera may be reacted with treated red blood cells. After washing off unbound antibody, a FITC labeled goat anti-rabbit Fab′2 fragment (anti H+L chains, Caltag) is added. The binding of FITC label to the red blood cells correlates with the amount of acridine bound to the red blood cell surface, and is assessed by FACScan™ analysis (Becton, Dickinson and Co., NJ). The relative modification of the red blood cells is determined from the FACScan™ mean fluorescence value.
A 20 mL sample of leukoreduced whole blood (Blood Source, Sacramento, Calif.) was centrifuged at 4,100×g for 5 minutes at room temperature in each of four 50 mL centrifuge tubes. The supernatant was removed from each tube to provide red cell concentrate (RCC). […] For each washed RCC, cells were resuspended in 5 mL of the solution used for washing. This is now referred to as the RBC test sample. […] These samples were incubated for 20 hours at room temperature. After incubation, the RBC were washed in BBS (Blood Bank Saline, 0.9% saline, unbuffered, Fisher Scientific) and were diluted to a final hematocrit of 4%. A 25 μL aliquot of each was mixed with 15 μL of rabbit polyclonal anti-acridine sera diluted 1:100 in BBS and the mixture was incubated at 37° C. for 30 minutes. The cells were subsequently washed with 1.5 mL BBS. After washing was complete, the cells were mixed with 50 μL of FITC labeled goat anti-rabbit Fab′2 fragment (1:64 dilution in BBS) and incubated at 37° C. for 30 minutes. […] Note that the quenching improves as glutathione is neutralized with increasing amounts of sodium hydroxide.
The FACScan analysis of the binding of rabbit anti-acridine sera to treated red cells was used to assess a variety of quenching conditions. […] The tables represent data from two different experiments, each with samples treated under standard conditions or with 20 mM neutralized glutathione. […] The data within an experiment provides the relative efficacy of the various treatments. Because the assay may depend on the lot of red blood cells used, the absolute values of mean fluorescence may vary from one study to the next, such that relative values should only be compared within a given experiment. […] Neutralized glutathione at 20 mM results in close to background levels.
An untreated control sample as well as a standard sample (co-addition of 2 mM acidic glutathione with 0.2 mM PIC-1) were also assessed.
Full units of red cell concentrates (Interstate Blood Bank, Inc., Memphis, Tenn.) were leukoreduced. A volume of 200 mL of this RCC (80% hematocrit) was mixed with 94 mL of Erythrosol or 100 mL of Adsol (Baxter Healthcare Corp., Deerfield, Ill.) as control (unit 1). A volume of 20 mL 8% dextrose was used to dissolve PIC-1 (mg) and acid glutathione (mg) and added to one unit to provide 0.2 mM PIC-1 and 2 mM glutathione (unit 2). […] For the glutathione, 1.2 mL of 10 N NaOH was added (2 equivalents). The PIC-1 was mixed with the unit, followed 1 minute later (unit 3) or 5 minutes later (unit 4) by glutathione. For unit 5, neutralized glutathione was mixed first, followed 10 minutes later by the PIC-1. […] All units were mixed by grasping the ends of the blood bag and mixing in a FIG. 8 motion 30 times. These were then incubated at room temperature for 20 hours total. A compound adsorption device (CAD), comprising a polymeric resin contained within a mesh pouch, was used for all but the control sample. This device is intended to remove residual PIC-1, PIC-1 breakdown products, and glutathione from the samples. Samples were incubated for 8 hours, then transferred to a second blood bag containing the CAD and incubated for an additional 12 hours. Following the room temperature incubation, samples were transferred to a refrigerator (4° C.) and stored up to 43 days.

Another test relates to Serratia marcescens. Format: cell-based. The note with it: no PIC-1, 20 mM glutathione.

`N[C@@H](CCC(=O)N[C@@H](CS)C(=O)NCC(=O)O)C(=O)O` [glutathione, γ-L-glutamyl-L-cysteinyl-glycine]: the mean fluorescence came to 2.16 in the test with red blood cells (16C day 0.8); 1.78 in the test with red blood cells (16C day 2); 1.58 in the test with red blood cells (16C day 7); 1.48 in the test on red blood cells (16C day 14); 1.58 in the test with red blood cells (16C day 22); 2.02 in the test on red blood cells (16C day 28). Further, the mean fluorescence is given as 1.62 in the test with red blood cells (16C day 35) and 1.8 with red blood cells (16C day 43). Moreover, the results for the “Log S. marcescens reduction” value with Serratia marcescens (0 eq base) and with Serratia marcescens (2 eq base) were 0.02 Log and 0.31 Log, respectively. Further, the “Log S. marcescens titer” value was 7.0 Log in the test with Serratia marcescens (0 eq base) and 7.4 Log in the test on Serratia marcescens (2 eq base).
